{
  "source": "patent US4239780A",
  "about": "“Phospholipase A2 inhibition” (The Upjohn Company, priority 1979, dated 1980)",
  "origin": "cited, not measured here",
  "system": "phospholipase A2 from venom of Russel Viper",
  "conditions": "enzyme from Russel Viper venom; cited from earlier work",
  "data": [
    {"molecule": "COc1ccc2c(c1)c(CC(=O)O)c(C)n2C(=O)c1ccc(Cl)cc1", "note": "[indomethacin, Indomethacin]", "values": [
      {"measurement": "inhibition of phospholipase A2", "result": "inactive"}
    ]}
  ]
}
